The text below walks through data of DBAASP.

Some test systems named below: Enterococcus faecium; Bacillus cereus AS1.126; Escherichia coli AS1.349; Botrytis cinerea 101.
What all share (test): ≥ marks a high value that may be exact or a test limit, other limits are often not marked, values filed in µg/mL are converted to µM
In test [1] the test system is Acinetobacter baumannii ATCC BAA-1794.
Test [2] concerns Escherichia coli ATCC 51659.
In test [3] the test system is Pseudomonas aeruginosa PAO1.
Test [4] deals with Staphylococcus aureus ATCC 33592.
The subject of test [5] is Enterococcus faecalis ATCC 29212.
Test [6] concerns Staphylococcus aureus ATCC 25923.
The test system of test [7] is Staphylococcus aureus K35.
In test [8] the test system is Staphylococcus aureus K52.
For test [9], the system named is Escherichia coli K12 MG1655.
For test [10], the system named is Staphylococcus aureus 68 HER 1049.
The test system of test [11] is Escherichia coli ATCC 25922.
The subject of test [12] is Pseudomonas aeruginosa ATCC 10419.
Test [13] concerns Pseudomonas aeruginosa ATCC 21625.
The subject of test [14] is Pseudomonas aeruginosa ATCC 21630.
The subject of test [15] is Pseudomonas aeruginosa ATCC 27853.
The test system of test [16] is Pseudomonas aeruginosa LCCE.
Test [17] relates to Pseudomonas aeruginosa LCCI.
The test system of test [18] is Pseudomonas aeruginosa LCGE.
The test system of test [19] is Pseudomonas aeruginosa LC.
Test [20] deals with Salmonella enterica subsp. enterica serovar Typhimurium C77-31.
Test [21] relates to Staphylococcus aureus ATCC 29213.
Test [22] concerns Staphylococcus epidermidis ATCC 12228.
Test [23] has as its system Acinetobacter baumannii CICC 22934.
For test [24], the system named is Enterobacter cloacae CGMCC 1.58.
Test [25] deals with Enterococcus faecalis CGMCC 1.595.
The test system of test [26] is Enterococcus faecium CGMCC 1.2334.
For test [27], the system named is Klebsiella aerogenes CGMCC 1.876.
The test system of test [28] is Klebsiella pneumoniae subsp. pneumoniae CGMCC 1.176.
The subject of test [29] is Lactococcus lactis AS1.1690.
Test [30] relates to Proteus mirabilis CICC 22931.
For test [31], the system named is Pseudomonas aeruginosa CGMCC 1.860.
The test system of test [32] is Staphylococcus aureus AS1.72.
Test [33] has as its system Staphylococcus aureus MRSA-16.
Test [34] relates to Staphylococcus aureus MRSA-G.
Test [35] relates to Corynebacterium glutamicum ATCC 13032.
Test [36] concerns Staphylococcus aureus ATCC 9144.

In brackets after ≈: the same amount, converted by molar mass.

In general, MIC refers to the lowest concentration found to suppress growth. Lower therefore signals greater potency. As for `CC(C)C[C@H](NC(=O)[C@H](CCCCN)NC(=O)[C@H](CCC(=O)O)NC(=O)[C@H](CCCCN)NC(=O)[C@@H](NC(=O)[C@H](CCCCN)NC(=O)[C@H](CCCCN)NC(=O)[C@H](Cc1ccccc1)NC(=O)[C@H](Cc1cnc[nH]1)NC(=O)[C@H](CCC(=O)O)NC(=O)[C@H](CO)NC(=O)[C@H](Cc1ccccc1)NC(=O)[C@H](Cc1c[nH]c2ccccc12)NC(=O)[C@H](CC(N)=O)NC(=O)[C@H](CCCN=C(N)N)NC(=O)[C@@H](NC(=O)[C@H](CCCCN)NC(=O)[C@@H](NC(=O)[C@H](CO)NC(=O)[C@@H](N)Cc1ccccc1)[C@@H](C)O)[C@@H](C)O)C(C)C)C(=O)N[C@@H](CCCCN)C(=O)N[C@@H](CC(=O)O)C(=O)N[C@H](C(=O)N[C@@H](Cc1ccccc1)C(=O)N[C@@H](C)C(=O)O)[C@@H](C)O` [FSTKTRNWFSEHFKKVKEKLKDTFA], the MIC in [1] was at least 80.6 µM; in test [2] it was at least 80.6 µM; in test [3] it was over 80.6 µM; in [4], at least 80.6 µM.
On to `CC[C@H](C)[C@H](NC(=O)CNC(=O)[C@H](CO)NC(=O)[C@H](CC(C)C)NC(=O)[C@@H](NC(=O)[C@H](CCCN=C(N)N)NC(=O)CNC(=O)[C@@H](NC(=O)[C@H](CC(C)C)NC(=O)[C@@H]1CCCN1C(=O)[C@H](CC(C)C)NC(=O)[C@@H](N)CCCCN)[C@@H](C)CC)C(C)C)C(=O)N[C@@H](CC(C)C)C(N)=O` [KLPLIGRVLSGIL], for which the minimum inhibitory concentration (MIC) was over 168 µM in [5]; at least 116 µM in the test on Enterococcus faecium; 83.7 µM (≈ 115 µg/mL) in [6]; at least 58.2 µM in [7]; at least 58.2 µM in test [8].
In the case of `CC[C@H](C)[C@H](NC(=O)CNC(=O)[C@H](CCCCN)NC(=O)[C@H](Cc1ccccc1)NC(=O)[C@H](CC(C)C)NC(=O)[C@H](CCCCN)NC(=O)[C@H](Cc1c[nH]c2ccccc12)NC(=O)[C@@H](N)CCCCN)C(=O)N[C@@H](CCCN=C(N)N)C(=O)N[C@@H](C)C(=O)N[C@H](C(=O)N[C@@H](CC(C)C)C(=O)N[C@@H](CCCCN)C(=O)N[C@H](C(=O)N[C@@H](CC(C)C)C(=O)O)C(C)C)C(C)C` [KWKLFKGIRAVLKVL], the MIC in test [9] turned out to be 2.22 µM (≈ 4 µg/mL); in test [10] it was 4.45 µM (≈ 8 µg/mL).
As to `CC[C@H](C)[C@H](NC(=O)[C@H](CCCCN)NC(=O)[C@H](CCCCN)NC(=O)[C@H](CC(C)C)NC(=O)[C@H](CCCN=C(N)N)NC(=O)[C@H](CCCCN)NC(=O)[C@H](CCCN=C(N)N)NC(=O)[C@H](CCCCN)NC(=O)[C@H](CCCCN)NC(=O)[C@H](CCCCN)NC(=O)[C@H](CCCN=C(N)N)NC(=O)[C@H](CC(C)C)NC(=O)[C@H](CCCN=C(N)N)NC(=O)[C@H](CCCN=C(N)N)NC(=O)[C@H](Cc1ccccc1)NC(=O)[C@@H](N)CCCN=C(N)N)C(N)=O` [RFRRLRKKKRKRLKKI], the MIC in test [11] was 128 µM (≈ 283 µg/mL); in [12], at least 256 µM; in test [13], at least 256 µM; in [14], at least 256 µM; in [15], 128 µM (≈ 283 µg/mL); in test [16], at least 256 µM. In addition, the MIC in test [17] is at least 256 µM; in [18] it was at least 256 µM; in [19], at least 256 µM; in test [20] it was at least 256 µM; in test [21], 128 µM (≈ 283 µg/mL); in test [22], 128 µM (≈ 283 µg/mL).
With `CC(C)C[C@H](NC(=O)[C@H](CC(C)C)NC(=O)[C@H](Cc1ccccc1)NC(=O)[C@H](CCCN=C(N)N)NC(=O)[C@H](CCCN=C(N)N)NC(=O)[C@H](CC(C)C)NC(=O)[C@H](Cc1cnc[nH]1)NC(=O)[C@H](CCCN=C(N)N)NC(=O)[C@H](CC(C)C)NC(=O)[C@@H](NC(=O)[C@H](C)NC(=O)[C@@H](N)CO)C(C)C)C(=O)N[C@@H](CCCN=C(N)N)C(=O)N[C@@H](CCCCN)C(=O)N[C@@H](Cc1cnc[nH]1)C(=O)N[C@@H](CCCN=C(N)N)C(=O)N[C@@H](CCCCN)C(=O)N[C@@H](Cc1cnc[nH]1)C(=O)O` [SAVLRHLRRFLLRKHRKH], the MIC in test [23] is at least 100 µM; in the test on Bacillus cereus AS1.126 it was 1.56 µM (≈ 3.63 µg/mL); in test [24] it was at least 100 µM; in test [25], 3.13 µM (≈ 7.27 µg/mL); in test [26] it was 3.13 µM (≈ 7.27 µg/mL); against Escherichia coli AS1.349, at least 100 µM. Also, the MIC in test [27] is at least 100 µM; in [28], at least 100 µM; in [29], 4.69 µM (≈ 10.9 µg/mL); in [30] it was at least 100 µM; in [31] it was at least 100 µM; in [32], 1.56 µM (≈ 3.63 µg/mL).
Regarding `CC[C@H](C)[C@H](NC(=O)[C@H](C)NC(=O)[C@H](CCCCN)NC(=O)[C@@H](NC(=O)CNC(=O)CNC(=O)[C@H](Cc1c[nH]c2ccccc12)NC(=O)[C@H](Cc1ccccc1)NC(=O)[C@H](CCCCN)NC(=O)[C@H](CCCCN)NC(=O)[C@H](Cc1ccccc1)NC(=O)[C@@H](N)CO)C(C)C)C(=O)N[C@@H](Cc1ccccc1)C(=O)N[C@@H](CCCCN)C(=O)NCC(=O)N[C@@H](C)C(=O)N[C@@H](CCCN=C(N)N)C(=O)N[C@@H](CCCCN)C(=O)NCC(=O)N[C@@H](Cc1c[nH]c2ccccc12)C(=O)N[C@@H](CCCCN)C(=O)O` [SFKKFWGGVKAIFKGARKGWK], the minimum inhibitory concentration (MIC) in test [11] is 1 µM (≈ 2.43 µg/mL); in test [33], at least 32 µM; in [34], at least 32 µM.
Take `CC[C@H](C)[C@H](NC(=O)[C@H](CCCCN)NC(=O)[C@@H](NC(=O)[C@H](CCCN=C(N)N)NC(=O)[C@H](C)NC(=O)[C@H](CCC(=O)O)NC(=O)[C@H](CCC(=O)O)NC(=O)[C@@H]1CCCN1C(=O)[C@@H](N)CO)C(C)C)C(=O)N[C@@H](CC(C)C)C(=O)N[C@H](C(=O)N[C@@H](C)C(=O)N[C@H](C(=O)N1CCC[C@H]1C(=O)N[C@@H](CCC(=O)O)C(=O)N[C@@H](CCSC)C(=O)N[C@@H](CCCN=C(N)N)C(=O)N[C@@H](CCC(=O)O)C(=O)N[C@@H](CCC(=O)O)C(=O)N[C@@H](CC(=O)O)C(=O)N[C@@H](CC(C)C)C(=O)N[C@@H](CO)C(=O)N[C@@H](CCC(=O)O)C(=O)N[C@@H](CCC(=O)O)C(=O)O)[C@@H](C)CC)[C@@H](C)O` [SPEEARVKILTAIPEMREEDLSEE]: the MIC in the test with Botrytis cinerea 101 is at least 100 µM; in test [35] it was at least 100 µM; in test [11] it was over 100 µM; in test [36], at least 100 µM.
